Assay results from publication PMC5515969, “Effects of 31 FDA approved small-molecule kinase inhibitors on isolated rat liver mitochondria” (Archives of Toxicology, 2016).
Where two headings read alike, the source gives them in different places.

Experiments:
[1] = test system: RCC I; test: RCC I activity in submitochondrial particles; type: biochemical, rat; set-up: key to RCC I at 10XCmax / RCC I at 100XCmax / RCC I at 50XCmax / RCC I at 30XCmax / RCC I at 20XCmax: activity relative to DMSO-treated controls (control set as 1 = 100%); conditions: 10XCmax; relative to DMSO treated samples
Procedure, shortened: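 Abs 340 nm (I/V) or 600 nm (II), 1-min reads × 6 min; 550 nm (III, IV), 10-s reads × 2 min. RCC I = rotenone-free minus rotenone rate. DMSO control = 1.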

[2] = test system: isolated rat liver mitochondria; test: Mitochondrial ROS production (CM-H2DCFDA); conditions: DMSO treated samples set as 1
[3] = test system: isolated rat liver mitochondria; test: Mitochondrial inner membrane potential (MMP), Rhodamine 123; type: biochemical; conditions: difference in signal between KI and DMSO treated samples at the end of experiments
Excerpt: Fig. 3 KI effects on mitochondrial inner membrane potential (MMP). […] In a, c, data are means and standard derivations from three separate experiments. *p < 0.05 as compared to DMSO-treated samples at the end of experiments. In b, data are means of two independent experiments

[4] = therapeutic maximal blood concentration, ref product labeling, cited from earlier work
[5] = test system: RCC IV; test: RCC IV activity in submitochondrial particles; type: biochemical, rat; set-up: key to RCC IV at 50XCmax / RCC IV at 100XCmax: activity relative to DMSO-treated controls (control set as 1 = 100%); conditions: 50XCmax; relative to DMSO treated samples; in %
Procedure, shortened: (§1)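 Kinase inhibitors were preincubated 15 min with submitochondrial particles (1 mg/ml) before complex activities were measured. RCC I was the rotenone-sensitive portion (activity without minus with rotenone). RCC I/V was read at 340 nm and RCC II at 600 nm every 1 min for 6 min. RCC III and IV were read at 550 nm every 10 s for 2 min. Activities are normalized to DMSO controls set as 1.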

[6] = test system: RCC III; test: RCC III activity in submitochondrial particles; type: biochemical, rat; set-up: key to RCC III at 100XCmax: activity relative to DMSO-treated controls (control set as 1 = 100%); conditions: 100XCmax; relative to DMSO treated samples
Procedure, shortened: as §1

[7] = test system: isolated rat liver mitochondria; test: Mitochondrial oxygen consumption (glutamate/malate or succinate driven, state 4 and state 3); type: biochemical; conditions: DMSO treated samples set as 1; on State 3 respiration driven by succinate at 10XCmax: key: 0 indicates that the drug had no effects (negative); on State 3 respiration driven by succinate at 1XCmax: key: 0 indicates that the drug had no effects (negative)
Procedure, shortened: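 Rat liver mitochondria (1 mg/ml protein) exposed 5 min to kinase inhibitors in 0.1% DMSO, then O2 consumption measured by Clark-type electrode with glutamate/malate or succinate (state 4), ADP added after 3 min (state 3). Rates normalized to 0.1% DMSO controls set to 1.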

[8] = target: T1, RCC II (Rattus norvegicus, UniProt P21913+Q641Z9+Q6PCT8+Q920L2); test: RCC II activity in submitochondrial particles; type: biochemical; set-up: key: activity relative to DMSO-treated controls (control set as 1 = 100%); conditions: relative to DMSO treated samples
T1 construct: Submitochondrial particles were prepared by subjecting the intact mitochondria to three successive freeze–thaw cycles; from tissue; host or cells: rat liver mitochondria, used as submitochondrial particles
T1 sequence (Q920L2 35-656): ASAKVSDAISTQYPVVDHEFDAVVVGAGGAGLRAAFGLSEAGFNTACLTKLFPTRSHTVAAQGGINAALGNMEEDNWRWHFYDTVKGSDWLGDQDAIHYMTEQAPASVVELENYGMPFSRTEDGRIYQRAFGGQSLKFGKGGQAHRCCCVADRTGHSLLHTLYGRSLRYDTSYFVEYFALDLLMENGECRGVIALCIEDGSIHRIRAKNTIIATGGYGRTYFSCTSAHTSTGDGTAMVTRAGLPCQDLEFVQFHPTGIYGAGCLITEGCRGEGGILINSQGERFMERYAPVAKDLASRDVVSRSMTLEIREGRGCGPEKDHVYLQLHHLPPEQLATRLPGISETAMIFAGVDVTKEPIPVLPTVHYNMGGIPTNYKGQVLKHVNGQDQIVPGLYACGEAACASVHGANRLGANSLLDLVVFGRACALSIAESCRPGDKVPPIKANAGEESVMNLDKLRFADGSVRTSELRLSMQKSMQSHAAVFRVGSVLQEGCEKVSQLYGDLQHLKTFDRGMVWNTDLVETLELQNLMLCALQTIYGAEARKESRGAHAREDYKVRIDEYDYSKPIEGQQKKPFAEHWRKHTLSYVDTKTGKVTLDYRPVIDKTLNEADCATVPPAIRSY
T1 sequence (P21913 31-282): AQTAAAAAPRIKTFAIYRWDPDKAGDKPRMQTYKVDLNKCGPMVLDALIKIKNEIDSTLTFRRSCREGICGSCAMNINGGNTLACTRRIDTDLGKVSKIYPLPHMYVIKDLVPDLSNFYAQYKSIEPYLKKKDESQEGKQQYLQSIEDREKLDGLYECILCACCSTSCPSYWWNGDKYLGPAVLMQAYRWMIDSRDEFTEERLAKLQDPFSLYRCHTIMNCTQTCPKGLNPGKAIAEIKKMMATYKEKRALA
T1 sequence (Q641Z9 1-169): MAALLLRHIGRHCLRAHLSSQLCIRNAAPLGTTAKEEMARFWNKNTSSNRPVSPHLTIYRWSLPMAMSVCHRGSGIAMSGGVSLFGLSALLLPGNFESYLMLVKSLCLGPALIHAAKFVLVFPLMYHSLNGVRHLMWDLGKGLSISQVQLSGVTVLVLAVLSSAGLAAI
T1 sequence (Q6PCT8 57-159): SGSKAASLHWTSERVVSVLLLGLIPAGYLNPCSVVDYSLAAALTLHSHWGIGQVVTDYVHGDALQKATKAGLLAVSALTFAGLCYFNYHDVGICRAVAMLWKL
Procedure, shortened: as §1

[9] = test system: isolated rat liver mitochondria; conditions: positive control alamethicin treated samples

For `Cc1nc(Nc2ncc(C(=O)Nc3c(C)cccc3Cl)s2)cc(N2CCN(CCO)CC2)n1` [dasatinib (free base)], the “RCC I at 10XCmax” value [1] was 0, the “ROS measured by CM-H2DCFDA at 1XCmax” value ([2]; 1XCmax) was 0 and the “ROS measured by CM-H2DCFDA at 2.5XCmax” value ([2]; 2.5XCmax) was 0. The “ROS measured by CM-H2DCFDA at 5XCmax” value ([2]; 5XCmax) was 0, the “ROS measured by CM-H2DCFDA at 10XCmax” value ([2]; 10XCmax) was 0 and the “ROS measured by CM-H2DCFDA at 20XCmax” value ([2]; 20XCmax) was 0. For the same compound, the “ROS measured by CM-H2DCFDA at 30XCmax” value ([2]; 30XCmax) was 0, the “ROS measured by CM-H2DCFDA at 50XCmax” value ([2]; 50XCmax) was 0 and the “ROS measured by CM-H2DCFDA at 100XCmax” value ([2]; 100XCmax) was 0. The “MMP measured by Rhodamine 123 at 1XCmax” value ([3]; 1XCmax) was 0, the “MMP measured by Rhodamine 123 at 2.5XCmax” value ([3]; 2.5XCmax) was 0 and the “MMP measured by Rhodamine 123 at 5XCmax” value ([3]; 5XCmax) was 0. For the same compound, the “MMP measured by Rhodamine 123 at 10XCmax” value ([3]; 10XCmax) was 0, the “MMP measured by Rhodamine 123 at 20XCmax” value ([3]; 20XCmax) was 0 and the “MMP measured by Rhodamine 123 at 30XCmax” value ([3]; 30XCmax) was 0. The “MMP measured by Rhodamine 123 at 50XCmax” value ([3]; 50XCmax) was 0, the “MMP measured by Rhodamine 123 at 100XCmax” value ([3]; 100XCmax) was 0 and the Cmax ([4]; read-out: Cmax at µM) was 0.18 µM. For the same compound, the “Cmax” value [4] was 85.8 ng/mL, the “RCC IV at 50XCmax” value [5] was 0 and the “RCC III at 100XCmax” value [6] was 0. For the same compound, the “State 3 respiration driven by glutamate/malate at 1XCmax” value ([7]; 1XCmax) was 0, the “State 3 respiration driven by succinate at 1XCmax” value ([7]; 1XCmax) was 0 and the “State 4 respiration driven by glutamate/malate at 1XCmax” value ([7]; 1XCmax) was 0. The “State 4 respiration driven by succinate at 1XCmax” value ([7]; 1XCmax) was 0, the “State 3 respiration driven by glutamate/malate at 2.5XCmax” value ([7]; 2.5XCmax) was 0 and the “State 3 respiration driven by succinate at 2.5XCmax” value ([7]; 2.5XCmax) was 0. For the same compound, the “State 4 respiration driven by glutamate/malate at 2.5XCmax” value ([7]; 2.5XCmax) was 0, the “State 4 respiration driven by succinate at 2.5XCmax” value ([7]; 2.5XCmax) was 0 and the “State 3 respiration driven by glutamate/malate at 5XCmax” value ([7]; 5XCmax) was 0. The “State 3 respiration driven by succinate at 5XCmax” value ([7]; 5XCmax) was 0, the “State 4 respiration driven by glutamate/malate at 5XCmax” value ([7]; 5XCmax) was 0 and the “State 4 respiration driven by succinate at 5XCmax” value ([7]; 5XCmax) was 0. The “State 3 respiration driven by glutamate/malate at 10XCmax” value ([7]; 10XCmax) was 0, the “State 3 respiration driven by succinate at 10XCmax” value ([7]; 10XCmax) was 0 and the “State 4 respiration driven by glutamate/malate at 10XCmax” value ([7]; 10XCmax) was 0. The “State 4 respiration driven by succinate at 10XCmax” value ([7]; 10XCmax) was 0, the “State 3 respiration driven by glutamate/malate at 20XCmax” value ([7]; 20XCmax) was 0 and the “State 3 respiration driven by succinate at 20XCmax” value ([7]; 20XCmax) was 0. For the same compound, the “State 4 respiration driven by glutamate/malate at 20XCmax” value ([7]; 20XCmax) was 0, the “State 4 respiration driven by succinate at 20XCmax” value ([7]; 20XCmax) was 0 and the “State 3 respiration driven by glutamate/malate at 30XCmax” value ([7]; 30XCmax) was 0. The “State 3 respiration driven by succinate at 30XCmax” value ([7]; 30XCmax) was 0, the “State 4 respiration driven by glutamate/malate at 30XCmax” value ([7]; 30XCmax) was 0 and the “State 4 respiration driven by succinate at 30XCmax” value ([7]; 30XCmax) was 0. The “State 3 respiration driven by glutamate/malate at 50XCmax” value ([7]; 50XCmax) was 0, the “State 3 respiration driven by succinate at 50XCmax” value ([7]; 50XCmax) was 0 and the “State 4 respiration driven by glutamate/malate at 50XCmax” value ([7]; 50XCmax) was 0. For the same compound, the “State 4 respiration driven by succinate at 50XCmax” value ([7]; 50XCmax) was 0, the “State 3 respiration driven by glutamate/malate at 100XCmax” value ([7]; 100XCmax) was 0 and the “State 3 respiration driven by succinate at 100XCmax” value ([7]; 100XCmax) was 0. The “State 4 respiration driven by glutamate/malate at 100XCmax” value ([7]; 100XCmax) was 0, the “State 4 respiration driven by succinate at 100XCmax” value ([7]; 100XCmax) was 0 and the “RCC II at 1.0XCmax” value ([8]; 1.0XCmax) was 0. The “RCC II at 2.5XCmax” value ([8]; 2.5XCmax) was 0, the “RCC II at 5XCmax” value ([8]; 5XCmax) was 0 and the “RCC II at 10XCmax” value ([8]; 10XCmax) was 0. The “RCC II at 20XCmax” value ([8]; 20XCmax) was 0, the “RCC II at 30XCmax” value ([8]; 30XCmax) was 0 and the “RCC II at 50XCmax” value ([8]; 50XCmax) was 0. The “RCC II at 100XCmax” value ([8]; 100XCmax) was 0, the “Cytochrome c release 1XCmax” value ([9]; 1XCmax) was 0 and the “Cytochrome c release 2.5XCmax” value ([9]; 2.5XCmax) was 0. The “Cytochrome c release 5XCmax” value ([9]; 5XCmax) was 0, the “Cytochrome c release 10XCmax” value ([9]; 10XCmax) was 0 and the “Cytochrome c release 20XCmax” value ([9]; 20XCmax) was 0. The “Cytochrome c release 30XCmax” value ([9]; 30XCmax) was 0, the “Cytochrome c release 50XCmax” value ([9]; 50XCmax) was 0 and the “Cytochrome c release 100XCmax” value ([9]; 100XCmax) was 0.
